Measured values published in patent publication US20150119373A1, “NOVEL BETULINIC ACID DERIVATIVES AS HIV INHIBITORS” (HETERO RESEARCH FOUNDATION, priority 2012, published 2015).
Where two headings read alike, the source gives them in different places.

Assays:
HIV-1 strain 92HT599 = test: Antiviral activity: p24 estimation in MT2 cells infected with HIV-1 strain 92HT599; assay type: cell-based; conditions: Human immunodeficiency virus 1, MT2 cells, HIV-1 92HT599, ~96 hours, p24; for inhibition at 0.1 µM: 100 nM, read-out: Antiviral activity % inhibition 100 nM; for inhibition at 1 µM: 1000 nM, read-out: Antiviral activity % inhibition 1000 nM
In short: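 Infection of MT2 cells used 10 TCID50/30000 cells, with compound present at ≤1% DMSO for ~96 h. p24 in well aliquots was quantified by kit. Percent inhibition is relative to vehicle controls.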

[1] = Cyto-toxicity assay (MTT) in MT2 cells without virus; assay type: cell-based; conditions: human
Method: For cyto-toxicity assay the same amount of MT2 cells as in antiviral assay without virus was added to the 96 well plates. The cyto-toxicity was measured using MTT reagent in parallel with p24 estimation. The percent viability is calculated in comparison with vehicle control.

[2] = Single dose oral pharmacokinetic study in mice; assay type: in vivo; conditions: for Cmax / Tmax / AUC(0-t) / AUC(0-inf): mouse, plasma
Method: The test item was administered through oral route to animals (rat/mice) at 30 mg/kg dose in a suitable vehicle at 10 ml/kg dose volume. Blood samples (˜50 uL at each time point) were collected from retro-orbital plexus using K3 EDTA as anticoagulant in eppendorf tubes at defined time intervals under light ether anesthesia. The samples were centrifuged at 3500×g to separate plasma and stored at −80° C. until analysis.
Sample analysis: Test samples were analyzed using LC-MS-MS after developing fit-for-purpose method for each of test compound.

[3] = Mice oral PK @30 mg/kg (Table 5)
[4] = Mice oral PK @30 mg/kg (Table 5), read-out: AUC 0-t
[5] = Oral PK @ 30 mg/ kg dose in mice (Table 6)
[6] = Oral PK @ 30 mg/ kg dose in mice (Table 6), read-out: AUCt

Row | SMILES | inhibition at 0.1 µM (HIV-1 strain 92HT599) [%] | inhibition at 1 µM (HIV-1 strain 92HT599) [%] | viability at 100 nM [1] [%] | viability at 1000 nM [1] [%] | Cmax [2, 3] [ng/mL] | Tmax [2, 3] [h] | AUC(0-t) [2, 4] [µg·h/mL] | Tlast [2, 5] [h] | AUC(0-inf) [2, 5] [µg·h/mL] | Cmax [2, 5] [ng/mL] | Tmax [2, 5] [h] | AUC(0-t) [2, 6] [µg·h/mL]
1 | CCN1CCN(C(=O)[C@]23CC[C@@H](C4(C)CC4)[C@@H]2[C@H]2CC[C@@H]4[C@@]5(C)CC[C@H](OC(=O)[C@H]6C[C@@H](C(=O)O)C6(C)C)C(C)(C)[C@@H]5CC[C@@]4(C)[C@]2(C)CC3)CC1 [Example 13, (1R,3S)-3-(((1R,3aS,5aR,5bR,7aR,9S,11aR,11bR,13aR,13bR)-3a-(4-ethylpiperazine-1-carbonyl)-5a,5b,8,8,11a-pentamethyl-1-(1-methylcyclopropyl)icosahydro-1H-cyclopenta[a]chrysen-9-yloxy)carbonyl)-2,2-dimethylcyclobutanecarboxylic acid] | 83 | 99 | 86 | 79 | 12000 | 20 | 456 | – | – | – | – | –
2 | C=C(C)[C@@H]1CC[C@]2(C(=O)N[C@@H]3C[C@H](c4nnc(C)o4)C3(C)C)CC[C@]3(C)[C@H](CC[C@@H]4[C@@]5(C)CC[C@H](OC(=O)[C@H]6C[C@@H](C(=O)O)C6(C)C)C(C)(C)[C@@H]5CC[C@]43C)[C@@H]12 [Example 21, (1R,3S)-3-(((1R,3aS,5aR,5bR,7aR,9S,11aR,11bR,13aR,13bR)-3a-((1R,3S)-2,2-dimethyl-3-(5-methyl-1,3,4-oxadiazol-2-yl)cyclobutylcarbamoyl)-5a,5b,8,8,11a-pentamethyl-1-(prop-1-en-2-yl)icosahydro-1H-cyclopenta[a]chrysen-9-yloxy)carbonyl)-2,2-dimethylcyclobutane carboxylicacid] | 100 | 100 | 94 | 96 | – | – | – | 24 | 185 | 5900 | 7 | 95.5
3 | [2H]C([2H])([2H])C(CC(=O)O[C@H]1CC[C@]2(C)[C@H]3CC[C@@H]4[C@H]5[C@H](C6(C)CC6)CC[C@]5(C(=O)N[C@@H]5C[C@H](C(=O)N6CCCCC6)C5(C)C)CC[C@@]4(C)[C@]3(C)CC[C@H]2C1(C)C)(C(=O)O)C([2H])([2H])[2H] [Example 22, 4-(((1R,3aS,5aR,5bR,7aR,9S,11aR,11bR,13aR,13bR)-3a-(((1R,3S)-2,2-dimethyl-3-(piperidine-1-carbonyl)cyclobutyl)carbamoyl)-5a,5b,8,8,11a-pentamethyl-1-(1-methylcyclopropyl)icosahydro-1H-cyclopenta[a]chrysen-9-yl)oxy)-2,2-bis(methyl-d3)-4-oxobutanoic acid] | 100 | 100 | 100 | 87 | – | – | – | 24 | 79 | 10200 | 1.8 | 63.9
4 | CC(C)(CC(=O)O[C@H]1CC[C@]2(C)[C@H]3CC[C@@H]4[C@H]5[C@H]([C@]6(C)CO6)CC[C@]5(C(=O)N[C@@H]5C[C@H](C(=O)N6CCCCC6)C5(C)C)CC[C@@]4(C)[C@]3(C)CC[C@H]2C1(C)C)C(=O)O [Example 14, 4-((1R,3aS,5aR,5bR,7aR,9S,11aR,11bR,13aR,13bS)-3a-((1R,3S)-2,2-dimethyl-3-(piperidine-1-carbonyl)cyclobutylcarbamoyl)-5a,5b,8,8,11a-pentamethyl-1-(2-methyloxiran-2-yl)icosa hydro-1H-cyclopenta[a]chrysen-9-yloxy)-2,2-dimethyl-4-oxobutanoicacid] | 100 | 100 | 86 | 88 | 4450 | 0.63 | 15.2 | – | – | – | – | –
5 | [2H]C([2H])([2H])C(CC(=O)O[C@H]1CC[C@]2(C)[C@H]3CC[C@@H]4[C@H]5[C@H](C(=C)C)CC[C@]5(C(=O)N5CCN(CC)CC5)CC[C@@]4(C)[C@]3(C)CC[C@H]2C1(C)C)(C(=O)O)C([2H])([2H])[2H] [Example 25, 4-(((1R,3aS,5aR,5bR,7aR,9S,11aR,11bR,13aR,13bR)-3a-(4-ethylpiperazine-1-carbonyl)-5a,5b,8,8,11a-pentamethyl-1-(prop-1-en-2-yl)icosahydro-1H-cyclopenta[a]chrysen-9-yl)oxy)-2,2-bis(methyl-d3)-4-oxobutanoic acid] | 100 | 100 | 100 | 84 | – | – | – | 48 | 122 | 6200 | 4.5 | 108
6 | COCCOC1CCN(C(=O)[C@]23CC[C@@H](C4(C)CC4)[C@@H]2[C@H]2CC[C@@H]4[C@@]5(C)CC[C@H](OC(=O)CC(C)(C)C(=O)O)C(C)(C)[C@@H]5CC[C@@]4(C)[C@]2(C)CC3)CC1 [Example 41, 4-(((1R,3aS,5aR,5bR,7aR,9S,11aR,11bR,13aR,13bR)-3a-(4-(2-methoxyethoxyl)piperidine-1-carbonyl)-5a,5b,8,8,11a-pentamethyl-1-(1-methylcyclopropyl)icosahydro-1H-cyclopenta[a]chrysen-9-yl)oxy)-2,2-dimethyl-4-oxobutanoic acid] | 97 | 99 | 86 | 86 | – | – | – | 48 | 240 | 9200 | 6.5 | 214
7 | CC1([C@@H]2CC[C@]3(C(=O)N4CCOCC4)CC[C@]4(C)[C@H](CC[C@@H]5[C@@]6(C)CC[C@H](OC(=O)[C@H]7C[C@@H](C(=O)O)C7(C)C)C(C)(C)[C@@H]6CC[C@]54C)[C@@H]23)CC1 [Example 28, (1R,3S)-2,2-dimethyl-3-((((1R,3aS,5aR,5bR,7aR,9S,11aR,11bR,13aR,13bR)-5a,5b,8,8,11a-pentamethyl-1-(1-methylcyclopropyl)-3a-(morpholine-4-carbonyl)icosahydro-1H-cyclopenta[a]chrysen-9-yl)oxy)carbonyl)cyclobutane-1-carboxylic acid] | 98 | 99 | 81 | 78 | – | – | – | 48 | 398 | 4500 | 16 | 171
8 | CCN1CCN(C(=O)[C@]23CC[C@@H](C4(C)CC4)[C@@H]2[C@H]2CC[C@@H]4[C@@]5(C)CC[C@H](OC(=O)CC(C)(C)C(=O)O)C(C)(C)[C@@H]5CC[C@@]4(C)[C@]2(C)CC3)CC1 [Example 12, 4-((1R,3aS,5aR,5bR,7aR,9S,11aR,11bR,13aR,13bR)-3a-(4-ethylpiperazine-1-carbonyl)-5a,5b,8,8,11a-pentamethyl-1-(1-methylcyclopropyl)icosahydro-1H-cyclopenta[a]chrysen-9-yloxy)-2,2-dimethyl-4-oxobutanoicacid] | 100 | 100 | 100 | 99 | 8160 | 4 | 201 | – | – | – | – | –
9 | Cc1nnc([C@H]2C[C@@H](NC(=O)[C@]34CC[C@@H](C5(C)CC5)[C@@H]3[C@H]3CC[C@@H]5[C@@]6(C)CC[C@H](OC(=O)[C@H]7C[C@@H](C(=O)O)C7(C)C)C(C)(C)[C@@H]6CC[C@@]5(C)[C@]3(C)CC4)C2(C)C)o1 [Example 17, (1R,3S)-3-(((1R,3aS,5aR,5bR,7aR,9S,11aR,11bR,13aR,13bR)-3a-((1R,3S)-2,2-dimethyl-3-(5-methyl-1,3,4-oxadiazol-2-yl)cyclobutylcarbamoyl)-5a,5b,8,8,11a-pentamethyl-1-(1-methylcyclopropyl)icosahydro-1H-cyclopenta[a]chrysen-9-yloxy)carbonyl)-2,2-dimethyl cyclobutanecarboxylicacid] | 100 | 100 | 77 | 89 | 5940 | 4.5 | 88.3 | – | – | – | – | –
10 | COCCOCCN1CCN(C(=O)[C@]23CC[C@@H](C4(C)CC4)[C@@H]2[C@H]2CC[C@@H]4[C@@]5(C)CC[C@H](OC(=O)CC(C)(C)C(=O)O)C(C)(C)[C@@H]5CC[C@@]4(C)[C@]2(C)CC3)CC1 [Example 39, 4-(((1R,3aS,5aR,5bR,7aR,9S,11aR,11bR,13aR,13bR)-3a-(4-(2-(2-methoxyethoxyl)ethyl)piperazine-1-carbonyl)-5a,5b,8,8,11a-pentamethyl-1-(1-methylcyclopropyl)icosahydro-1H-cyclopenta[a]chrysen-9-yl)oxy)-2,2-dimethyl-4-oxobutanoic acid] | 97 | 99 | 83 | 88 | – | – | – | 48 | 119 | 7000 | 4 | 111
